What was measured:
Assay in all cases: Weeding effect in post-emergence stage
Assay type in all cases: in vivo
Details in all cases: 250 g/ha; 2 leaf stage; 15 days after application; fresh weight control rate
Echinochloa crusgali = system: Echinochloa crusgali
How it was run: (§1)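 Two-leaf-stage pot plants, spray-tower application at 500/250/125/60/30/15 g/ha with methyl oleate EC synergist; fresh weight control level (0–5) read at 15 days post-treatment, three replicates averaged.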

Setaria viridis = system: Setaria viridis
How it was run: as §1

Abutilon theophrasti = system: Abutilon theophrasti
How it was run: as §1

Digitaria sanguinalis = system: Digitaria sanguinalis
How it was run: as §1

Amaranthus retroflexus = system: Amaranthus retroflexus
How it was run: as §1

Compound	weeding effect in post-emergence stage, activity level (growth control rate), Echinochloa crusgali (Echinochloa crusgali)	weeding effect in post-emergence stage, activity level (growth control rate), Setaria viridis (Setaria viridis)	weeding effect in post-emergence stage, activity level (growth control rate), Abutilon theophrasti (Abutilon theophrasti)	weeding effect in post-emergence stage, activity level (growth control rate), Digitaria sanguinalis (Digitaria sanguinalis)	weeding effect in post-emergence stage, activity level (growth control rate), Amaranthus retroflexus (Amaranthus retroflexus)
Cc1nnc(NC(=O)c2ccc(C(F)(F)F)c([S@+]([O-])CCOC(F)F)c2F)o1 [Compound 164]	5 (Level 5: growth control rate is above 85%)	5 (Level 5: growth control rate is above 85%)	5 (Level 5: growth control rate is above 85%)	5 (Level 5: growth control rate is above 85%)	5 (Level 5: growth control rate is above 85%)
CCCSc1c(C(=O)Nc2nnc(C)o2)ccc(C(F)(F)F)c1[S@+]([O-])CCC [Compound 570]	5 (Level 5: growth control rate is above 85%)	5 (Level 5: growth control rate is above 85%)	5 (Level 5: growth control rate is above 85%)	5 (Level 5: growth control rate is above 85%)	5 (Level 5: growth control rate is above 85%)
Cc1nnc(NC(=O)c2ccc(C(F)(F)F)c([S@+]([O-])CC(C)(F)F)c2F)o1 [Compound 29]	5 (Level 5: growth control rate is above 85%)	5 (Level 5: growth control rate is above 85%)	5 (Level 5: growth control rate is above 85%)	5 (Level 5: growth control rate is above 85%)	5 (Level 5: growth control rate is above 85%)
COc1c(C(=O)Nc2nnc(C)o2)ccc(C(F)(F)F)c1[S@+]([O-])CCN(C)C [Compound 340]	5 (Level 5: growth control rate is above 85%)	5 (Level 5: growth control rate is above 85%)	5 (Level 5: growth control rate is above 85%)	5 (Level 5: growth control rate is above 85%)	5 (Level 5: growth control rate is above 85%)
CCC[S@@+]([O-])c1c(C(F)(F)F)ccc(C(=O)Nc2nnc(CC)o2)c1F [Compound 358]	5 (Level 5: growth control rate is above 85%)	5 (Level 5: growth control rate is above 85%)	5 (Level 5: growth control rate is above 85%)	5 (Level 5: growth control rate is above 85%)	5 (Level 5: growth control rate is above 85%)
Cc1nnc(NC(=O)c2ccc(C(F)(F)F)c([S@@+]([O-])C(=O)CC(F)(F)F)c2F)o1 [Compound 169]	5 (Level 5: growth control rate is above 85%)	5 (Level 5: growth control rate is above 85%)	5 (Level 5: growth control rate is above 85%)	5 (Level 5: growth control rate is above 85%)	5 (Level 5: growth control rate is above 85%)
Cc1nnc(NC(=O)c2ccc(C(F)(F)F)c([S@+]([O-])CCC(F)(F)C(F)(F)F)c2F)o1 [Compound 35]	5 (Level 5: growth control rate is above 85%)	5 (Level 5: growth control rate is above 85%)	5 (Level 5: growth control rate is above 85%)	5 (Level 5: growth control rate is above 85%)	5 (Level 5: growth control rate is above 85%)
COc1c(C(=O)Nc2nnc(C)o2)ccc(C(F)(F)F)c1[S@@+]([O-])C(F)(F)C(F)(F)F [Compound 327]	5 (Level 5: growth control rate is above 85%)	5 (Level 5: growth control rate is above 85%)	5 (Level 5: growth control rate is above 85%)	5 (Level 5: growth control rate is above 85%)	5 (Level 5: growth control rate is above 85%)
CCC[S@@+]([O-])c1c(C(F)F)ccc(C(=O)Nc2nnnn2C)c1OC [Compound 866]	5 (Level 5: growth control rate is above 85%)	5 (Level 5: growth control rate is above 85%)	5 (Level 5: growth control rate is above 85%)	5 (Level 5: growth control rate is above 85%)	5 (Level 5: growth control rate is above 85%)
COc1c(C(=O)Nc2nnc(C)o2)ccc(C(F)(F)F)c1[S@+]([O-])CCCO [Compound 335]	5 (Level 5: growth control rate is above 85%)	5 (Level 5: growth control rate is above 85%)	5 (Level 5: growth control rate is above 85%)	5 (Level 5: growth control rate is above 85%)	5 (Level 5: growth control rate is above 85%)
CCC[S@@+]([O-])c1c(C(F)(F)F)ccc(C(=O)Nc2nnc(C)o2)c1OC(C)C [Compound 534]	5 (Level 5: growth control rate is above 85%)	5 (Level 5: growth control rate is above 85%)	5 (Level 5: growth control rate is above 85%)	5 (Level 5: growth control rate is above 85%)	5 (Level 5: growth control rate is above 85%)
CSc1c(C(=O)Nc2nnc(C)o2)ccc(C(F)(F)F)c1[S@+]([O-])CC(C)C [Compound 551]	5 (Level 5: growth control rate is above 85%)	5 (Level 5: growth control rate is above 85%)	5 (Level 5: growth control rate is above 85%)	5 (Level 5: growth control rate is above 85%)	5 (Level 5: growth control rate is above 85%)

Reference: patent US12643871B2, “Aryl formamide compound containing chiral sulfur oxide or salt thereof, preparation method, herbicidal composition and use thereof” (Qingdao Kingagroot Chemical Compound Co., Ltd., priority 2019, dated 2026)
